pIC50: −log10 of the molar value.
Target: bovine cardiac myofibrils (full-length cardiac myosin ATPase in the native sarcomere) (Bos taurus (Bovine), UniProt Q9BE39)
Experiment: Skinned bovine cardiac myofibril ATPase assay (PK/LDH-coupled)
Assay type: biochemical
Settings: Ca2+ activating to 75% of maximal rate; for CDMF75 IC15: concentration giving 15% inhibition; for pIC50: read-out: CDMF75 IC50
Method in brief: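 Inhibition of steady-state ATPase read at 340 nm through a PK/LDH-coupled NADH system (0.5 mM NADH, 1.5 mM PEP). Detergent-skinned bovine cardiac myofibrils, 1 mg/mL, were tested at pH 6.8 in PIPES/MgCl2 with 50 μM ATP and calcium adjusted to give pCa50 or pCa75 activation.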

Sequence of bovine cardiac myofibrils (full-length cardiac myosin ATPase in the native sarcomere) (Q9BE39 whole entry): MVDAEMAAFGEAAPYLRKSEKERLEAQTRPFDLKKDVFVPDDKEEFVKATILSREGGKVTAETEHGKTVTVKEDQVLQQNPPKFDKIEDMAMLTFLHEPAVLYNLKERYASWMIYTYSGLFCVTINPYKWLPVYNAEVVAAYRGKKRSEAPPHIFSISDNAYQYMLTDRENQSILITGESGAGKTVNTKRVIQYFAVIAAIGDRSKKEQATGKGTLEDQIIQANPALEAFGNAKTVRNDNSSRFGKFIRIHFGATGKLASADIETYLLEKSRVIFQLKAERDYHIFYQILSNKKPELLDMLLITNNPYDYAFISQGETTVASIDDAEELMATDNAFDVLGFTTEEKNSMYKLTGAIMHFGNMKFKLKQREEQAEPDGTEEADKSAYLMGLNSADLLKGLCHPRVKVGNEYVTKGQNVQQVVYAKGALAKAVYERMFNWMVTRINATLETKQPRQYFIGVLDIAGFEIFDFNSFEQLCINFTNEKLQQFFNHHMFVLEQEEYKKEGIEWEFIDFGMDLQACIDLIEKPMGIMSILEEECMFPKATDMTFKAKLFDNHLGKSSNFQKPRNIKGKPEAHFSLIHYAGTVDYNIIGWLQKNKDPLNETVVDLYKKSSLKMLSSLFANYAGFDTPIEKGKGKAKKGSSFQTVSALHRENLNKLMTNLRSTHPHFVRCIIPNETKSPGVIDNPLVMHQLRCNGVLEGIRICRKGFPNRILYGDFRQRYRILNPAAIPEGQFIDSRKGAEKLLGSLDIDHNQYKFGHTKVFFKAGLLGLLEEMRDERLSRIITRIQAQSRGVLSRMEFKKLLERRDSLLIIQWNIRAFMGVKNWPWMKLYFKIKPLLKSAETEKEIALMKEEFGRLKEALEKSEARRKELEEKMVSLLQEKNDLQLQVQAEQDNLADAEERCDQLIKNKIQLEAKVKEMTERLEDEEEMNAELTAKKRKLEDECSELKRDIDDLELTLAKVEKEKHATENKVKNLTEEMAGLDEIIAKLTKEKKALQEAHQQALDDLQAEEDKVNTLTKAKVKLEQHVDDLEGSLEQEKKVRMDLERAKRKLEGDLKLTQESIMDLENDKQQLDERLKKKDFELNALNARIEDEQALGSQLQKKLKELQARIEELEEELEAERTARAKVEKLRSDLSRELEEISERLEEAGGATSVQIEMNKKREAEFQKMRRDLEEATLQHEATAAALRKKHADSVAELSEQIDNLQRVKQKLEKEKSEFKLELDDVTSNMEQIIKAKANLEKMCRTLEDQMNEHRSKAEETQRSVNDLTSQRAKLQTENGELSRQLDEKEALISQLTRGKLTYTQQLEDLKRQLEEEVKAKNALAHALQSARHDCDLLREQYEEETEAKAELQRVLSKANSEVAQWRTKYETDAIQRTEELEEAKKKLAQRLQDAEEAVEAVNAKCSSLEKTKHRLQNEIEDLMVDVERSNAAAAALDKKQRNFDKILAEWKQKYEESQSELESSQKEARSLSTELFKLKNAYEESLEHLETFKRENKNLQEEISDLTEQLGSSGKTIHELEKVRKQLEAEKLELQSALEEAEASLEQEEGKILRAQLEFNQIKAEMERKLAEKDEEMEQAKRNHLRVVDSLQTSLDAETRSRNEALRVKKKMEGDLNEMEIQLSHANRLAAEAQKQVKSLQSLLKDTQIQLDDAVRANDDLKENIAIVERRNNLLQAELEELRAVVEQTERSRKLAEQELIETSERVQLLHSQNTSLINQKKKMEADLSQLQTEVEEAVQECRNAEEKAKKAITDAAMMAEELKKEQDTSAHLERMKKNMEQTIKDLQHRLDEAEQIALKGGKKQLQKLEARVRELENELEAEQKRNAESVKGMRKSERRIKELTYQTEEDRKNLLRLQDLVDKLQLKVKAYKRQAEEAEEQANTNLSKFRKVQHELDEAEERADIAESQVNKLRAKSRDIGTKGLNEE
Sequence of bovine cardiac myofibrils (full-length cardiac myosin ATPase in the native sarcomere) (P85100 whole entry partner): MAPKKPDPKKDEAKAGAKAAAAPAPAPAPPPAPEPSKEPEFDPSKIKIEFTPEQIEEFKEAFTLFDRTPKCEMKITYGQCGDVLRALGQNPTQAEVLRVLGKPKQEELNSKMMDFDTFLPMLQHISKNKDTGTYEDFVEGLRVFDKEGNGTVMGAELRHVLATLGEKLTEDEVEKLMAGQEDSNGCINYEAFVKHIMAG
Sequence of bovine cardiac myofibrils (full-length cardiac myosin ATPase in the native sarcomere) (Q3SZE5 whole entry partner): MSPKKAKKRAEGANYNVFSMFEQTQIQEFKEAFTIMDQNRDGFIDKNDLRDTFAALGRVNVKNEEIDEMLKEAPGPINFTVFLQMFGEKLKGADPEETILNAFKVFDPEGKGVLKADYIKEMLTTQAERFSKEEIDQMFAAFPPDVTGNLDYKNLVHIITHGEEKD

| SMILES | CDMF75 IC15 [µM] | pIC50 |
| --- | --- | --- |
| Cc1cc(C(=O)N[C@@H]2COc3cc(-c4noc(C(F)F)n4)cnc32)ccn1 [Compound 196, (S)—N-(6-(5-(difluoromethyl)-1,2,4-oxadiazol-3-yl)-2,3-dihydrofuro[3,2-b]pyridin-3-yl)-2-methylisonicotinamide] | 4.5 | 4.76 |
| Cn1nnc(C(=O)NC2COc3cc(-c4noc(C(F)F)n4)ccc32)n1 (centres unmarked) [Compound 197, N-(6-(5-(difluoromethyl)-1,2,4-oxadiazol-3-yl)-2,3-dihydrobenzofuran-3-yl)-2-methyl-2H-tetrazole-5-carboxamide] | 3.2 | 4.91 |
| Cn1nnc(C(=O)N[C@@H]2COc3cc(-c4noc(C(F)F)n4)ccc32)n1 [Compound 198, (S)-N-(6-(5-(difluoromethyl)-1,2,4-oxadiazol-3-yl)-2,3-dihydrobenzofuran-3-yl)-2-methyl-2H-tetrazole-5-carboxamide] | 2.0 | 5.14 |
| Cc1nc(-c2ccc3c(c2)OCC3NC(=O)c2nnn(C)n2)no1 (centres unmarked) [Compound 199, 2-methyl-N-(6-(5-methyl-1,2,4-oxadiazol-3-yl)-2,3-dihydrobenzofuran-3-yl)-2H-tetrazole-5-carboxamide] | 6.0 | 4.62 |
| Cc1nc(-c2ccc3c(c2)OC[C@H]3NC(=O)c2nnn(C)n2)no1 [Compound 200, (S)-2-methyl-N-(6-(5-methyl-1,2,4-oxadiazol-3-yl)-2,3-dihydrobenzofuran-3-yl)-2H-tetrazole-5-carboxamide] | 2.6 | 4.95 |
| Cc1noc(-c2ccc3c(c2)CC[C@H]3NC(=O)c2cn(C)nc2C)n1 [Compound 201, (R)-1,3-dimethyl-N-(5-(3-methyl-1,2,4-oxadiazol-5-yl)-2,3-dihydro-1H-inden-1-yl)-1H-pyrazole-4-carboxamide] | 1.4 | 5.27 |
| Cc1noc(-c2ccc3c(c2)CC[C@H]3NC(=O)c2cnc(C)o2)n1 [Compound 202, (R)-2-methyl-N-(5-(3-methyl-1,2,4-oxadiazol-5-yl)-2,3-dihydro-1H-inden-1-yl)oxazole-5-carboxamide] | 2.6 | 4.98 |
| Cc1noc(-c2ccc3c(c2)CC[C@H]3NC(=O)c2nnn(C)n2)n1 [Compound 203, (R)-2-methyl-N-(5-(3-methyl-1,2,4-oxadiazol-5-yl)-2,3-dihydro-1H-inden-1-yl)-2H-tetrazole-5-carboxamide] | 1.0 | 5.44 |
| Cc1noc(-c2ccc3c(c2)CC[C@H]3NC(=O)c2ccnn2C)n1 [Compound 204, (R)-1-methyl-N-(5-(3-methyl-1,2,4-oxadiazol-5-yl)-2,3-dihydro-1H-inden-1-yl)-1H-pyrazole-5-carboxamide] | 0.5 | 5.74 |
| Cc1ncc(C(=O)NC2COc3cc(-c4noc(C(F)F)n4)ccc32)o1 (centres unmarked) [Compound 205, N-(6-(5-(difluoromethyl)-1,2,4-oxadiazol-3-yl)-2,3-dihydrobenzofuran-3-yl)-2-methyloxazole-5-carboxamide] | 1.1 | 5.40 |
| Cc1ncc(C(=O)N[C@@H]2COc3cc(-c4noc(C(F)F)n4)ccc32)o1 [Compound 206, (S)-N-(6-(5-(difluoromethyl)-1,2,4-oxadiazol-3-yl)-2,3-dihydrobenzofuran-3-yl)-2-methyloxazole-5-carboxamide] | 0.7 | 5.64 |
| Cc1nn(C)cc1C(=O)NC1COc2cc(-c3noc(C(F)F)n3)ccc21 (centres unmarked) [Compound 207, N-(6-(5-(difluoromethyl)-1,2,4-oxadiazol-3-yl)-2,3-dihydrobenzofuran-3-yl)-1,3-dimethyl-1H-pyrazole-4-carboxamide] | 1.0 | 5.44 |
| Cc1nn(C)cc1C(=O)N[C@@H]1COc2cc(-c3noc(C(F)F)n3)ccc21 [Compound 208, (S)-N-(6-(5-(difluoromethyl)-1,2,4-oxadiazol-3-yl)-2,3-dihydrobenzofuran-3-yl)-1,3-dimethyl-1H-pyrazole-4-carboxamide] | 0.5 | 5.80 |
| Cc1c(C(=O)NC2COc3cc(-c4noc(C(F)F)n4)ccc32)cnn1C (centres unmarked) [Compound 209, N-(6-(5-(difluoromethyl)-1,2,4-oxadiazol-3-yl)-2,3-dihydrobenzofuran-3-yl)-1,5-dimethyl-1H-pyrazole-4-carboxamide] | 0.9 | 5.48 |
| Cc1c(C(=O)N[C@@H]2COc3cc(-c4noc(C(F)F)n4)ccc32)cnn1C [Compound 210, (S)-N-(6-(5-(difluoromethyl)-1,2,4-oxadiazol-3-yl)-2,3-dihydrobenzofuran-3-yl)-1,5-dimethyl-1H-pyrazole-4-carboxamide] | 0.5 | 5.80 |
| Cc1nc(-c2ccc3c(c2)OCC3NC(=O)c2cnn(C)c2)no1 (centres unmarked) [Compound 212, 1-methyl-N-(6-(5-methyl-1,2,4-oxadiazol-3-yl)-2,3-dihydrobenzofuran-3-yl)-1H-pyrazole-4-carboxamide] | 1.7 | 5.22 |

Now from value to compound:

| CDMF75 IC15 [µM] | pIC50 | SMILES |
| --- | --- | --- |
| 1.2 | 5.33 | Cc1cc(C(=O)N[C@@H]2CCc3cc(-c4nc(C(F)F)no4)ccc32)n(C)n1 [Compound 213, (R)-N-(5-(3-(difluoromethyl)-1,2,4-oxadiazol-5-yl)-2,3-dihydro-1H-inden-1-yl)-1,3-dimethyl-1H-pyrazole-5-carboxamide] |
| 1.3 | 5.31 | Cc1nn(C)cc1C(=O)N[C@@H]1CCc2cc(-c3nc(C(F)F)no3)ccc21 [Compound 214, (R)-N-(5-(3-(difluoromethyl)-1,2,4-oxadiazol-5-yl)-2,3-dihydro-1H-inden-1-yl)-1,3-dimethyl-1H-pyrazole-4-carboxamide] |
| 3.0 | 4.91 | Cc1ncc(C(=O)N[C@@H]2CCc3cc(-c4nc(C(F)F)no4)ccc32)o1 [Compound 215, (R)-N-(5-(3-(difluoromethyl)-1,2,4-oxadiazol-5-yl)-2,3-dihydro-1H-inden-1-yl)-2-methyloxazole-5-carboxamide] |
| 1.3 | 5.31 | Cn1nnc(C(=O)N[C@@H]2CCc3cc(-c4nc(C(F)F)no4)ccc32)n1 [Compound 216, (R)-N-(5-(3-(difluoromethyl)-1,2,4-oxadiazol-5-yl)-2,3-dihydro-1H-inden-1-yl)-2-methyl-2H-tetrazole-5-carboxamide] |
| 0.6 | 5.72 | Cn1nccc1C(=O)N[C@@H]1CCc2cc(-c3nc(C(F)F)no3)ccc21 [Compound 217, (R)—N-(5-(3-(difluoromethyl)-1,2,4-oxadiazol-5-yl)-2,3-dihydro-1H-inden-1-yl)-1-methyl-1H-pyrazole-5-carboxamide] |
| 0.5 | 5.80 | Cn1cc(C(=O)N[C@@H]2COc3cc(-c4noc(C(F)F)n4)ccc32)cn1 [Compound 218, (S)-N-(6-(5-(difluoromethyl)-1,2,4-oxadiazol-3-yl)-2,3-dihydrobenzofuran-3-yl)-1-methyl-1H-pyrazole-4-carboxamide] |
| 0.7 | 5.60 | Cn1cc(C(=O)NC2COc3cc(-c4noc(C(F)F)n4)ccc32)cn1 (centres unmarked) [Compound 219, N-(6-(5-(difluoromethyl)-1,2,4-oxadiazol-3-yl)-2,3-dihydrobenzofuran-3-yl)-1-methyl-1H-pyrazole-4-carboxamide] |
| 38.3 | < 4.41 | Cn1nccc1C(=O)N[C@H]1COc2cc(-c3noc(C4CC4)n3)ccc21 [Compound 220, (R)-N-(6-(5-cyclopropyl-1,2,4-oxadiazol-3-yl)-2,3-dihydrobenzofuran-3-yl)-1-methyl-1H-pyrazole-5-carboxamide] |
| 0.6 | 5.70 | Cn1nccc1C(=O)NC1COc2cc(-c3noc(C4CC4)n3)ccc21 (centres unmarked) [Compound 221, N-(6-(5-cyclopropyl-1,2,4-oxadiazol-3-yl)-2,3-dihydrobenzofuran-3-yl)-1-methyl-1H-pyrazole-5-carboxamide] |
| 1.3 | 5.38 | COCc1nc(-c2ccc3c(c2)OCC3NC(=O)c2ccnn2C)no1 (centres unmarked) [Compound 223, N-(6-(5-(methoxymethyl)-1,2,4-oxadiazol-3-yl)-2,3-dihydrobenzofuran-3-yl)-1-methyl-1H-pyrazole-5-carboxamide] |
| 0.6 | 5.68 | COCc1nc(-c2ccc3c(c2)OC[C@H]3NC(=O)c2ccnn2C)no1 [Compound 224, (S)-N-(6-(5-(methoxymethyl)-1,2,4-oxadiazol-3-yl)-2,3-dihydrobenzofuran-3-yl)-1-methyl-1H-pyrazole-5-carboxamide] |
| 39.2 | 4.41 | COCc1nc(-c2ccc3c(c2)OC[C@@H]3NC(=O)c2cc(C)nn2C)no1 [Compound 225, (R)-N-(6-(5-(methoxymethyl)-1,2,4-oxadiazol-3-yl)-2,3-dihydrobenzofuran-3-yl)-1,3-dimethyl-1H-pyrazole-5-carboxamide] |
| 1.2 | 5.40 | COCc1nc(-c2ccc3c(c2)OCC3NC(=O)c2cc(C)nn2C)no1 (centres unmarked) [Compound 226, N-(6-(5-(methoxymethyl)-1,2,4-oxadiazol-3-yl)-2,3-dihydrobenzofuran-3-yl)-1,3-dimethyl-1H-pyrazole-5-carboxamide] |
| 0.7 | 5.66 | COCc1nc(-c2ccc3c(c2)OC[C@H]3NC(=O)c2cc(C)nn2C)no1 [Compound 227, (S)-N-(6-(5-(methoxymethyl)-1,2,4-oxadiazol-3-yl)-2,3-dihydrobenzofuran-3-yl)-1,3-dimethyl-1H-pyrazole-5-carboxamide] |
| 0.3 | 6.10 | CCc1nc(-c2ccc3c(c2)OC[C@H]3NC(=O)c2ccnn2C)no1 [Compound 228, (S)—N-(6-(5-ethyl-1,2,4-oxadiazol-3-yl)-2,3-dihydrobenzofuran-3-yl)-1-methyl-1H-pyrazole-5-carboxamide] |
